From ChEMBL document CHEMBL1157124, “Synthesis and anticancer evaluation of alpha-lipoic acid derivatives” (Bioorg Med Chem Lett, 2010)

How the values were obtained:
Mus musculus [1] = assay: Acute toxicity in ICR mouse assessed as change in body weight at 100 mg/kg, ip qd for 4 days; type: organism-based; design: dose 100 mg/kg, route intraperitoneal; conditions: in vivo, 96 h
Bel-7402 [2] = assay: Cytotoxicity against human Bel7402 cells assessed as growth inhibition at 10 ug/ml after 24 hrs by MTT assay; type: functional; conditions: Bel-7402, 24 h, read-out: GI
CCRF S-180 [3] = assay: Cytotoxicity against mouse S180 cells assessed as growth inhibition at 1 ug/ml after 24 hrs by MTT assay; type: functional; conditions: CCRF S-180, 24 h
[4] = Cytotoxicity against human HO8910 cells assessed as growth inhibition at 1 ug/ml after 24 hrs by MTT assay; type: functional; conditions: HO-8910, 24 h, read-out: GI
KB [5] = assay: Cytotoxicity against human KB cells assessed as growth inhibition at 10 ug/ml after 24 hrs by MTT assay; type: functional; conditions: read-out: GI
Mus musculus [6] = assay: Acute toxicity in ICR mouse assessed as gross pathological changes at 1000 mg/kg, ig; type: organism-based; design: dose 1000 mg/kg, route intragastric; conditions: in vivo, po
KB [7] = assay: Cytotoxicity against human KB cells assessed as growth inhibition at 1 ug/ml after 24 hrs by MTT assay; type: functional; conditions: read-out: GI
[8] = Acute toxicity in ICR mouse; type: organism-based; conditions: in vivo
NCI-H460 [9] = assay: Cytotoxicity against human NCI-H460 cells assessed as growth inhibition at 10 ug/ml after 24 hrs by MTT assay; type: functional; conditions: NCI-H460, 24 h, read-out: GI
NCI-H460 [10] = assay: Cytotoxicity against human NCI-H460 cells assessed as growth inhibition at 1 ug/ml after 24 hrs by MTT assay; type: functional; conditions: NCI-H460, 24 h, read-out: GI
Bel-7402 [11] = assay: Cytotoxicity against human Bel7402 cells assessed as growth inhibition at 1 ug/ml after 24 hrs by MTT assay; type: functional; conditions: Bel-7402, 24 h, read-out: GI
NCI-H460 [12] = assay: Cytotoxicity against human NCI-H460 cells assessed as growth inhibition at 0.1 ug/ml after 24 hrs by MTT assay; type: functional; conditions: NCI-H460, 24 h, read-out: GI
[13] = Cytotoxicity against human HO8910 cells assessed as growth inhibition at 100 ug/ml after 24 hrs by MTT assay; type: functional; conditions: HO-8910, 24 h, read-out: GI
CCRF S-180 [14] = assay: Cytotoxicity against mouse S180 cells assessed as growth inhibition at 0.1 ug/ml after 24 hrs by MTT assay; type: functional; conditions: CCRF S-180, 24 h
CCRF S-180 [15] = assay: Antitumor activity against mouse S180 cells xenografted in ICR mouse assessed as inhibition of tumor weight at 200 mg/kg, ig administered 2 days after tumor inoculation qd for 7 days relative to control; type: functional; conditions: CCRF S-180, po, route intragastric
KB [16] = assay: Cytotoxicity against human KB cells assessed as growth inhibition at 100 ug/ml after 24 hrs by MTT assay; type: functional; conditions: read-out: GI
[17] = Cytotoxicity against human HO8910 cells assessed as growth inhibition at 10 ug/ml after 24 hrs by MTT assay; type: functional; conditions: HO-8910, 24 h, read-out: GI
PC-3 [18] = assay: Cytotoxicity against human PC3 cells assessed as growth inhibition at 0.1 ug/ml after 24 hrs by MTT assay; type: functional; conditions: PC-3, 24 h, read-out: GI
NCI-H460 [19] = assay: Cytotoxicity against human NCI-H460 cells assessed as growth inhibition at 100 ug/ml after 24 hrs by MTT assay; type: functional; conditions: NCI-H460, 24 h, read-out: GI
CCRF S-180 [20] = assay: Antitumor activity against mouse S180 cells xenografted in ICR mouse assessed as reduction of tumor weight at 200 mg/kg, ig administered 2 days after tumor inoculation qd for 7 days; type: functional; conditions: route intragastric
Mus musculus [21] = assay: Acute toxicity in ICR mouse assessed as mortality at 1000 mg/kg, ig; type: organism-based; design: dose 1000 mg/kg, route intragastric; conditions: in vivo, po
CCRF S-180 [22] = assay: Cytotoxicity against mouse S180 cells assessed as growth inhibition at 10 ug/ml after 24 hrs by MTT assay; type: functional; conditions: CCRF S-180, 24 h
Mus musculus [23] = assay: Acute toxicity in ICR mouse assessed as mortality at 100 mg/kg, ip qd for 4 days; type: organism-based; design: dose 100 mg/kg, route intraperitoneal; conditions: in vivo, 96 h
PC-3 [24] = assay: Cytotoxicity against human PC3 cells assessed as growth inhibition at 10 ug/ml after 24 hrs by MTT assay; type: functional; conditions: PC-3, 24 h, read-out: GI
PC-3 [25] = assay: Cytotoxicity against human PC3 cells assessed as growth inhibition at 100 ug/ml after 24 hrs by MTT assay; type: functional; conditions: PC-3, 24 h, read-out: GI
Bel-7402 [26] = assay: Cytotoxicity against human Bel7402 cells assessed as growth inhibition at 100 ug/ml after 24 hrs by MTT assay; type: functional; conditions: Bel-7402, 24 h, read-out: GI
PC-3 [27] = assay: Cytotoxicity against human PC3 cells assessed as growth inhibition at 1 ug/ml after 24 hrs by MTT assay; type: functional; conditions: PC-3, 24 h, read-out: GI
Mus musculus [28] = assay: Acute toxicity in ICR mouse assessed as mortality at 200 mg/kg, ip qd for 9 days measured on day 11; type: organism-based; design: dose 200 mg/kg, route intraperitoneal; conditions: in vivo, 216 h
CCRF S-180 [29] = assay: Cytotoxicity against mouse S180 cells assessed as growth inhibition at 100 ug/ml after 24 hrs by MTT assay; type: functional; conditions: CCRF S-180, 24 h
CCRF S-180 [30] = assay: Antitumor activity against mouse S180 cells xenografted in ICR mouse assessed as reduction of tumor weight at 100 mg/kg, ig administered 2 days after tumor inoculation qd for 7 days; type: functional; conditions: route intragastric

SMILES: O=C(CCCCC1CCSS1)Nc1ccc(Cl)cn1 (stereo not given)
- Activity (Mus musculus [1]): 10%
- inhibition of growth at 10 µg/mL (Bel-7402 [2]): 16.1%
- inhibition at 1 µg/mL (CCRF S-180 [3]): 13%
- inhibition of growth at 1 µg/mL [4]: 2.1%
- inhibition of growth at 10 µg/mL (KB [5]): 28.6%
- Activity (Mus musculus [6]): Non-toxic
- inhibition of growth at 1 µg/mL (KB [7]): 0.76%
- LD50 [8]: 1000 mg/kg
- inhibition of growth at 10 µg/mL (NCI-H460 [9]): 33.7%
- inhibition of growth at 1 µg/mL (NCI-H460 [10]): 6.26%
- inhibition of growth at 1 µg/mL (Bel-7402 [11]): 7.44%
- inhibition of growth at 0.1 µg/mL (NCI-H460 [12]): 3.93%
- inhibition of growth at 100 µg/mL [13]: 68.5%
- inhibition at 0.1 µg/mL (CCRF S-180 [14]): 5.92%
- inhibition in vivo at 200 mg/kg (CCRF S-180 [15]): 24.7%
- inhibition of growth at 100 µg/mL (KB [16]): 74.5%
- inhibition of growth at 10 µg/mL [17]: 27.5%
- inhibition of growth at 0.1 µg/mL (PC-3 [18]): 2.22%
- inhibition of growth at 100 µg/mL (NCI-H460 [19]): 58.5%
- Activity (CCRF S-180 [20]): 1.15 g
- Activity (Mus musculus [21]): Non-toxic
- inhibition at 10 µg/mL (CCRF S-180 [22]): 24.5%
- Activity (Mus musculus [23]): Non-toxic
- inhibition of growth at 10 µg/mL (PC-3 [24]): 17.1%
- inhibition of growth at 100 µg/mL (PC-3 [25]): 42.3%
- inhibition of growth at 100 µg/mL (Bel-7402 [26]): 48.5%
- inhibition of growth at 1 µg/mL (PC-3 [27]): 2%
- Activity (Mus musculus [28]): Toxic
- inhibition at 100 µg/mL (CCRF S-180 [29]): 74.3%
- Activity (CCRF S-180 [30]): 1.53 g
